Test results: ChEMBL document CHEMBL1145844 (J Med Chem, 2003)

Columns and labels:
[1] = target: T1, Delta-type opioid receptor (Homo sapiens, UniProt P41143); test: % stimulation of [35S]GTP-gamma-S, binding in recombinant human Opioid receptor delta 1 transfected into CHO cells; assay type: functional, cell-based
[2] = target: Opioid receptors; delta & kappa (Homo sapiens, UniProt P41145+P41143); test: Ratio of kappa/delta-opioid receptors Binding affinity; assay type: protein assay
[3] = target: T2, Kappa-type opioid receptor (Homo sapiens, UniProt P41145); test: % stimulation of [35S]GTP-gamma-S, binding of compound in recombinant human Opioid receptor kappa 1 transfected into CHO cells; assay type: functional, cell-based
[4] = target: T1, Delta-type opioid receptor; test: Agonistic activity towards Opioid receptor delta 1; assay type: functional
[5] = target: Opioid receptors; mu & delta (Homo sapiens, UniProt P41143+P35372); test: Ratio of mu/delta-opioid receptors Binding affinity; assay type: protein assay
Mu-type opioid receptor [6] = target: T3, Mu-type opioid receptor (Homo sapiens, UniProt P35372); test: Effective concentration agonistic activity towards Opioid receptor mu 1; assay type: functional
[7] = target: T2, Kappa-type opioid receptor; test: Agonistic activity towards Opioid receptor kappa 1; assay type: functional
Mu-type opioid receptor [8] = target: T3, Mu-type opioid receptor; test: Binding affinity for human Opioid receptor mu 1 transfected into chinese hamster ovary cells by displacing [3H]DAMGO radioligand; assay type: cell-based
Mu-type opioid receptor [9] = target: T3, Mu-type opioid receptor; test: % stimulation of [35S]GTP-gamma-S, binding in recombinant human Opioid receptor mu 1 transfected into CHO cells; assay type: functional, cell-based
[10] = target: T1, Delta-type opioid receptor; test: Binding affinity for human Opioid receptor delta 1 transfected into chinese hamster ovary cells by displacing [3H]CI-DPDPE radioligand; assay type: cell-based
[11] = target: T2, Kappa-type opioid receptor; test: Binding affinity in recombinant human Opioid receptor kappa 1 transfected into chinese hamster ovary cells by displacing [3H]U-69593 radioligand; assay type: cell-based
[12] = target: T2, Kappa-type opioid receptor; test: Agonistic activity towards opioid receptor kappa 1; assay type: functional

T1 sequence (P41143 whole entry): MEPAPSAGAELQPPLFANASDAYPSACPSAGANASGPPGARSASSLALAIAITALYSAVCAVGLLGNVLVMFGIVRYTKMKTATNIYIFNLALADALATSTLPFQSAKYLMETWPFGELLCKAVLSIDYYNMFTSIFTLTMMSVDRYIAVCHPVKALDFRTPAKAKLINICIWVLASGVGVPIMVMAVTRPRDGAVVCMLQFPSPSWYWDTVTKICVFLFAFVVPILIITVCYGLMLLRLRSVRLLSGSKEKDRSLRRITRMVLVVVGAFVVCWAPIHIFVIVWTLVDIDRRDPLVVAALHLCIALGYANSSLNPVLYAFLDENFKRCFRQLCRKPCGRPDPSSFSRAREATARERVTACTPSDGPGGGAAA
T2 sequence (P41145 whole entry): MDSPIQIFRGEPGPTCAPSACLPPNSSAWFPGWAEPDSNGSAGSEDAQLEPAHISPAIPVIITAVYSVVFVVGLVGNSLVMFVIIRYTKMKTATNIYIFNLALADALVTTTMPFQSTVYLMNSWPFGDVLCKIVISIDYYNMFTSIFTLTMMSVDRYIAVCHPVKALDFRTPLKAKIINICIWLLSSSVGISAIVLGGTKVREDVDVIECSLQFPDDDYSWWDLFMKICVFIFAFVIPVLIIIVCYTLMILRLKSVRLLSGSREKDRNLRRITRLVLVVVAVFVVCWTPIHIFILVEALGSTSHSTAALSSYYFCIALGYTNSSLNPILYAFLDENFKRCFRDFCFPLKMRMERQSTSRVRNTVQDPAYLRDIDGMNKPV
T3 sequence (P35372 whole entry): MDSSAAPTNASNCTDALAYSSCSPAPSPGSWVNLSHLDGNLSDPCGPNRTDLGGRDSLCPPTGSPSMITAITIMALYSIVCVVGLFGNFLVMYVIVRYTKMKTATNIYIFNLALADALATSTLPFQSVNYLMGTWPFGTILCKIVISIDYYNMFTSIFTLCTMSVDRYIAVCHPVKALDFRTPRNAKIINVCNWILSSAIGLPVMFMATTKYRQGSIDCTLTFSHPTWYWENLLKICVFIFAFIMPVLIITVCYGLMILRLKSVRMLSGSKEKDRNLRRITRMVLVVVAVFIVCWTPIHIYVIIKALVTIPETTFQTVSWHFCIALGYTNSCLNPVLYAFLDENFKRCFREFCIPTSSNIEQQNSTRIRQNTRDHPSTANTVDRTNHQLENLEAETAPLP

Structure (SMILES)	Stimulation [1] [%]	Ki [2]	Stimulation [3] [%]	EC50 [4] [µM]	Ki [5]	EC50 (Mu-type opioid receptor [6]) [µM]	EC50 [7] [µM]	Ki (Mu-type opioid receptor [8]) [µM]	Stimulation (Mu-type opioid receptor [9]) [%]	Ki [10] [µM]	Ki [11] [µM]	EC50 [12] [µM]
COc1ccc2c(c1O)[C@]13CCN(C)C(C2)[C@]12CCC(=O)[C@H]3/C(=C/c1ccccc1)C2	80	0.04	85	0.00419	0.08	0.0067	0.0175	0.00043	123	0.0055	0.0002	
CC(C)=CC[C@@]12Cc3c([nH]c4ccccc34)[C@]3(C)Oc4c(O)ccc5c4[C@]13CCN(C)C2C5	43	8.6	31	0.0901	4.9	1.2	0.945	0.254	72	0.0514	0.44	
CN1CC[C@]23c4c5ccc(O)c4O[C@@]2(C)c2[nH]c4ccccc4c2C[C@@]3(C/C=C/c2ccccc2)C1C5	79	7.5	60	0.0218	3.5	0.804	2.05	0.0438	85	0.0125	0.0942	
COc1ccc2c(c1O)[C@]13CCN(C)C(C2)[C@@]12C/C(=C\c1ccccc1)[C@@H]3c1[nH]c3ccccc3c1C2	87	2.2	83	0.0426	0.4	0.0447	0.323	0.0063	110	0.0159	0.0346	
COc1ccc2c(c1O)[C@]13CCN(C)C(C2)[C@@]12CC(=C(C)C)[C@@H]3c1[nH]c3ccccc3c1C2		0.3	44	0.211	3.2	1.02	0.866	0.33	52	0.103	0.0284	
COc1ccc2c(c1O)[C@]13CCN(C)C(C2)[C@]12CCC(=O)[C@H]3/C(=C(\C)c1ccccc1)C2	108	0.02	116	0.0723	0.8	0.0152	0.00338	0.00454	108	0.00566	0.00014	
C/C=C1\C[C@@]23Cc4c([nH]c5ccccc45)[C@@H]1[C@@]21CCN(C)C3Cc2ccc(OC)c(O)c21		2.9	36	0.221	1.5	1.64		0.122	41	0.0825	0.239	2.21
COc1ccc2c(c1O)[C@]13CCN(C)C(C2)[C@@]12C/C(=C(/C)c1ccccc1)[C@@H]3c1[nH]c3ccccc3c1C2	168	0.03	97	0.368	0.6	0.139	0.0824	0.0134	144	0.0232	0.00061	
